Columns and labels:
[1] = Binding to mouse plasma proteins (micro-ultrafiltration); type: in vitro ADME; details: non-Swiss albino, pooled mouse plasma
Description: The extent of binding to mouse plasma proteins by BA-TPQ was determined using a micro-ultrafiltration system as previously described. BA-TPQ was dissolved in methanol and added to pooled mouse plasma to yield final concentrations of 0.5 μM and 5.0 μM. Control solutions were prepared in methanol to account for non-specific binding of BA-TPQ to the filter membranes. Duplicate preparations of each concentration were incubated at 37 °C for 1 h, before being placed into the sample reservoirs of Amicon Centrifree® ultrafiltration tubes (30 kDa exclusion; Millipore Corporation, Bedford, MA, USA). The filter systems were then centrifuged at 3000 g (37 °C) for 30 min or until no solution remained in the reservoir. Aliquots were taken from each filtrate and analyzed using the validated HPLC method. The concentrations of the unfiltered plasma and control preparations were also determined using the same protocol and expressed as the “total drug” (T) present, while the amounts of BA-TPQ present in the filtrates were designated as “free drug” (F). The percentage of BA-TPQ bound to plasma proteins was calculated as follows:
(1) Percent Bound=[(T-F)/T]×100

[2] = Pharmacokinetics and tissue distribution in nude mice; type: in vivo
Description: Female ICR/CD-1 (18–20 g) mice were purchased from Harlan Laboratories (Indianapolis, IN), and female nude mice (nu/nu; 4–6 weeks) were purchased from Frederick Cancer Research and Development Center (Frederick, MD). All animal use and care procedures were approved by the Institutional Animal Care and Use Committee (IACUC) of the University of Alabama at Birmingham. All animals were fed with commercial diet and water ad libitum and were on an alternating 12 h light/dark cycle.
CD-1 and nude mice were randomly divided into groups of three, and were dosed either intravenously (5 mg/kg) or intraperitoneally (10 mg/kg) with BA-TPQ in PEG 400:ethanol:0.9% saline (57.1%:14.3%:28.6%). Before dosing, and at 5, 15, 30, 60 min, and 2, 4, 8, and 24 h after dosing, groups of animals (three/time point) were anesthetized, and blood was collected from the retro-orbital sinus into heparinized tubes. Plasma was obtained by centrifuging the blood samples at 14,000 rpm for 15 min. BA-TPQ was then extracted from plasma and stored at −80 °C. The brain, heart, kidneys, liver, lungs, and spleen were also collected at the same time points during necropsy, blotted on Whatman No. 1 filter paper, trimmed of extraneous fat and connective tissue, weighed, and homogenized in phosphate-buffered saline. The resulting homogenates were stored at −80 °C until further processing and analysis. Urine and feces were collected for 24 hr from mice housed in metabolic cages. After collection, the cages were also washed twice with 200 μL PBS, and the washes were collected and analyzed separately. The total urine was determined as the amount from the urine plus washes 1 and 2. Feces were homogenized in PBS, then extracted using the same procedure used for tissues.
Six hundred microliters of acetonitrile was added to 200 μL of plasma, urine, cage washes (first and second), or tissue/feces homogenate in an Eppendorf tube to precipitate proteins. After centrifugation at 14,000 rpm for 10 min, the supernatant was transferred to a glass tube and evaporated to dryness using a TurboVap® LV Concentration Workstation (Caliper Lifesciences, Hopkinton, MA). The residue was reconstituted with 500 μL ethyl acetate, sonicated for 10 min, and vortexed for 10 sec. Samples were then centrifuged again and the resulting supernatant was transferred to a new glass tube and evaporated to dryness. Finally, samples were reconstituted in 100 μL mobile phase, and 50 μL was injected into the HPLC system for analysis.
The averages of the BA-TPQ concentration in plasma and tissues following intravenous and intraperitoneal administration to three animals per time point were used for pharmacokinetic analyses using a two-compartmental model and a non-compartment model, respectively. The following pharmacokinetic parameters were estimated using Phoenix WinNonlin 6.0 (Mountain View, CA): area under the concentration-time curve (AUC, h·μg/mL), half-life (T½, h), maximum concentration (Cmax, μg/mL), time of the maximum concentration (Tmax, h), and clearance (CL, mL/h/kg), as applicable. Bioavailability (X) was calculated as X= [AUCip × doseiv]/[AUCiv × doseip].

[3] = test system: breast and prostate xenograft tumors; details: cited from earlier work
[4] = test system: prostate and breast cancer cell lines; parameters: method as in PMID 19274441, PMID 19936915; details: cell lines with varying p53 status; cited from earlier work
[5] = female, nude (nu/nu), mouse, brain, IP 10 mg/kg
[6] = female, nude (nu/nu), mouse, brain, IV 5 mg/kg
[7] = female, nude (nu/nu), mouse, heart, IP 10 mg/kg
[8] = female, nude (nu/nu), mouse, heart, IV 5 mg/kg
[9] = female, nude (nu/nu), mouse, kidneys, IP 10 mg/kg
[10] = female, nude (nu/nu), mouse, kidneys, IV 5 mg/kg
[11] = female, nude (nu/nu), mouse, liver, IP 10 mg/kg
[12] = female, nude (nu/nu), mouse, liver, IV 5 mg/kg
[13] = female, nude (nu/nu), mouse, lungs, IP 10 mg/kg
[14] = female, nude (nu/nu), mouse, lungs, IV 5 mg/kg
[15] = female, nude (nu/nu), mouse, plasma, IP 10 mg/kg
[16] = female, nude (nu/nu), mouse, plasma, IV 5 mg/kg
[17] = female, nude (nu/nu), mouse, spleen, IP 10 mg/kg
[18] = female, nude (nu/nu), mouse, spleen, IV 5 mg/kg

## O=C1C(NCc2ccccc2)=CC2=NCCc3c[nH]c1c32 [BA-TPQ, 7-(benzylamino)-1,3,4,8-tetrahydropyrrolo[4,3,2-de]quinolin-8(1H)-one]
[1]; mouse, read-out: Bound to plasma proteins (overall) (converted)
  fraction unbound at 1 h: ~0.3
[1]; mouse plasma, 0.5 μM, read-out: Bound to plasma proteins (converted)
  fraction unbound at 1 h, 0.5 μM: 0.37
[1]; mouse plasma, 5.0 μM, read-out: Bound to plasma proteins (converted)
  fraction unbound at 1 h, 5 μM: 0.26
[2]; IP 10 mg/kg
  Time of greatest plasma concentration: 1 h
[2]; brain, IP 10 mg/kg
  Cl: 650 mL/min/kg
[2]; [5]
  AUC: 770 ng·h/mL
  Cmax: 90 ng/mL
  Tmax: 60 min
  half-life: 244 min
[2]; [6]
  AUC: 340 ng·h/mL
  Cmax: 620 ng/mL
  clearance: 1730 mL/min/kg
  half-life: 22.8 min
[2]; [7]
  AUC: 7630 ng·h/mL
  Cmax: 6380 ng/mL
  Tmax: 15 min
  half-life: 30 min
[2]; [8]
  AUC: 6370 ng·h/mL
  Cmax: 48800 ng/mL
  clearance: 83.3 mL/min/kg
  half-life: 5.4 min
[2]; [9]
  AUC: 12600 ng·h/mL
  Cmax: 10800 ng/mL
  Tmax: 30 min
  half-life: 29.4 min
[2]; [10]
  AUC: 5480 ng·h/mL
  Cmax: 20800 ng/mL
  clearance: 100 mL/min/kg
  half-life: 10.8 min
[2]; [11]
  AUC: 2760 ng·h/mL
  Cmax: 4560 ng/mL
  Tmax: 4.8 min
  half-life: 31.8 min
[2]; [12]
  AUC: 710 ng·h/mL
  Cmax: 2710 ng/mL
  clearance: 817 mL/min/kg
  half-life: 10.8 min
[2]; [13]
  AUC: 13200 ng·h/mL
  Cmax: 14800 ng/mL
  Tmax: 4.8 min
  half-life: 35.4 min
[2]; [14]
  AUC: 9180 ng·h/mL
  Cmax: 18400 ng/mL
  clearance: 66.7 mL/min/kg
  half-life: 21 min
[2]; [15]
  AUC: 150 ng·h/mL
  Cmax: 220 ng/mL
  Tmax: 15 min
  half-life: 70.2 min
[2]; female, nude (nu/nu), mouse, plasma, IP 10 mg/kg vs IV 5 mg/kg, read-out: Intraperitoneal bioavailability
  bioavailability: 100%
[2]; [16]
  AUC: 40 ng·h/mL
  Cmax: 150 ng/mL
  half-life: 10.2 min
[2]; [17]
  AUC: 18300 ng·h/mL
  Cmax: 31200 ng/mL
  Tmax: 15 min
  half-life: 99 min
[2]; [18]
  AUC: 4980 ng·h/mL
  Cmax: 11000 ng/mL
  clearance: 117 mL/min/kg
  half-life: 18.6 min
[2]; heart, IP 10 mg/kg
  Cl: 83 mL/min/kg
[2]; kidneys, IP 10 mg/kg
  Cl: 50 mL/min/kg
[2]; liver, IP 10 mg/kg
  Cl: 217 mL/min/kg
[2]; lungs, IP 10 mg/kg
  Cl: 50 mL/min/kg
[2]; plasma, IP 10 mg/kg
  Cl: 3920 mL/min/kg
[2]; spleen, IP 10 mg/kg
  Cl: 33 mL/min/kg
[3]; 10 mg/kg, three times per week for up to six weeks
  Death in mice on repeated dosing: does not cause death
[3]; especially at 10 mg/kg, 3 days/week for several weeks
  Toxicity in mice (weight loss): systemic toxicity
[3]; prostate and breast cancer xenografts
  Tumor growth in mouse xenograft models: inhibit tumor growth
[4]
  In vitro growth of prostate and breast cancer cell lines: inhibit in vitro growth

Source: publication PMC2920546, “Preclinical Pharmacology of BA-TPQ, a Novel Synthetic Iminoquinone Anticancer Agent” (Marine Drugs, 2010)
